Tests used:
[1] = molecular target: cdk4/D (Homo sapiens, UniProt P11802); assay: Cyclin-Dependent Kinase 4 (cdk4) Assay; format: biochemical; conditions: read-out: cdk4/D IC50
[2] = molecular target: Cdk5/p25 (Homo sapiens, UniProt Q00535); assay: Cyclin-Dependent Kinase 5 High Throughput Screening (cdk5-HTS) Assay; format: biochemical; conditions: high throughput screen
How it was run: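 IC50 determined from 33P incorporation into GST-RbCOOH captured on glutathione plates and read by scintillation counting. Reaction: 1.0 μg/mL Cdk5/p25, 20 μM [γ33P]ATP, pH 7.4 Tris buffer with MgCl2 and DTT, 30 min at room temperature, stopped with EDTA.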

[3] = molecular target: cdk2/cyclinE (Homo sapiens, UniProt P24941); assay: Cyclin-Dependent Kinase Assay cdk2/cyclinE; conditions: cdk2/E IC50
[4] = molecular target: cdk2/cyclinA (Homo sapiens, UniProt P24941); assay: Cyclin-Dependent Kinase Assay cdk2/cyclinA; conditions: cdk2/A IC50
[5] = molecular target: cdc2/cyclinB (Homo sapiens, UniProt P06493); assay: Cyclin-Dependent Kinase Assay cdc2/cyclinB
cdc2/cyclinB, sequence (P06493 whole entry): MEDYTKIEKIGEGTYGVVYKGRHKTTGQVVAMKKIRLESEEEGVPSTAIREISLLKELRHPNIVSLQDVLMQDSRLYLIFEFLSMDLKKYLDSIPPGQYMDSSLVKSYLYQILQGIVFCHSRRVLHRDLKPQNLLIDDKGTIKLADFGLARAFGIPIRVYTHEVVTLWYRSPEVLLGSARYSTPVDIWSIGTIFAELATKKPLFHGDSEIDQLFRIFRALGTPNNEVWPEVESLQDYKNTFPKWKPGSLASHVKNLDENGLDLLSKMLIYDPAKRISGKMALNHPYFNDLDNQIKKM
cdc2/cyclinB, sequence (P14635 whole entry, further chain): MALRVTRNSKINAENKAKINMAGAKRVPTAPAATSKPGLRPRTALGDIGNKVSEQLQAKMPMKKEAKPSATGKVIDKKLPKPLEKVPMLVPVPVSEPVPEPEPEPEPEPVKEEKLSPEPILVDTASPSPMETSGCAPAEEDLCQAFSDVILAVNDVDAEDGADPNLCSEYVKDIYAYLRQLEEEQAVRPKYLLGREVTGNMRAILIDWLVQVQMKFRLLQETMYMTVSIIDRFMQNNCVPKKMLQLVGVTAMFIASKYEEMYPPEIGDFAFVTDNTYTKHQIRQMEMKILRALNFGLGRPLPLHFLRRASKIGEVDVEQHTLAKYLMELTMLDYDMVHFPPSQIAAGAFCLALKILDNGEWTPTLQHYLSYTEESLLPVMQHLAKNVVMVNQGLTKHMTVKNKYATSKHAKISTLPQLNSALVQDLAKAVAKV

cdk4/D, sequence (P11802 whole entry): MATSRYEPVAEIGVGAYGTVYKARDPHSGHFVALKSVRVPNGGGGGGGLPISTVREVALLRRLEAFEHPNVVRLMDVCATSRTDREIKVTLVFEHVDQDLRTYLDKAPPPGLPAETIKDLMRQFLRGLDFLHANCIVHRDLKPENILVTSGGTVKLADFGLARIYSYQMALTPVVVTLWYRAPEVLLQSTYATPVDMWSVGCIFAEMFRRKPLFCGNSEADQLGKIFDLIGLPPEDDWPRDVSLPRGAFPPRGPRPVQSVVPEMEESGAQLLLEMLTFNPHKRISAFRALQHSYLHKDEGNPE
cdk4/D, sequence (P24385 whole entry, further chain): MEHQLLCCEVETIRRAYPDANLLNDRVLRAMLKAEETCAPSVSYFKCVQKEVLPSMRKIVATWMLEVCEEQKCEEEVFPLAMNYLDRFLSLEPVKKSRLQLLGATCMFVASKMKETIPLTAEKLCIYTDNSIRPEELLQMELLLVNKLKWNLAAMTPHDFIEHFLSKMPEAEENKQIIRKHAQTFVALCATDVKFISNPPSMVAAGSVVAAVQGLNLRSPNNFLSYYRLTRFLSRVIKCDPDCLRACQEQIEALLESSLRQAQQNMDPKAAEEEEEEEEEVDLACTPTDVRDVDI

SMILES	IC50 [1] [nM]	IC50 [2] [nM]	IC50 [3] [nM]	IC50 [4] [nM]	IC50 [5] [nM]
CCn1c(=O)ccc2cnc(Nc3ccc4[nH]ncc4c3)nc21 [Example 286, 8-Ethyl-2-(1H-indazol-5-ylamino)-8H-pyrido[2,3-d]pyrimidin-7-one]	475	108	223	630	275
CCn1c(=O)ccc2cnc(Nc3ccc4[nH]nnc4c3)nc21 [Example 287, 2-(1H-Benzotriazol-5-ylamino)-8-ethyl-8H-pyrido[2,3-d]pyrimidin-7-one]	810	81	147	365	350
CCn1c(=O)ccc2cnc(Nc3ccc(NC(=O)OC(C)(C)C)cc3)nc21 [Example 288, [4-(8-Ethyl-7-oxo-7,8-dihydro-pyrido[2,3-d]pyrimidin-2-ylamino)-phenyl]-carbamic acid tert-butyl ester]	965	295	1060	1250	485
CCn1c(=O)ccc2cnc(Nc3ccc(O)cc3F)nc21 [Example 289, 8-Ethyl-2-(2-fluoro-4-hydroxy-phenylamino)-8H-pyrido[2,3-d]pyrimidin-7-one]	3250	720	1160	2000	1250
CCn1c(=O)ccc2cnc(Nc3ccc(O)c(Cl)c3)nc21 [Example 290, 2-(3-Chloro-4-hydroxy-phenylamino)-8-ethyl-8H1-pyrido[2,3-d]pyrimidin-7-one]	1690	244	183	430	165
CCn1c(=O)ccc2cnc(Nc3cc(Cl)c(O)c(Cl)c3)nc21 [Example 291, 2-(3,5-Dichloro-4-hydroxy-phenylamino)-8-ethyl-8H-pyrido[2,3-d]pyrimidin-7-one]	2050	445	443	790	440
CCn1c(=O)ccc2cnc(Nc3ccc(F)c(C)c3)nc21 [Example 294, 8-Ethyl-2-(4-fluoro-3-methyl-phenylamino)-8H-pyrido[2,3-d]pyrimidin-7-one]	410	43	130	640	210
CCn1c(=O)ccc2cnc(Nc3ccc(S(N)(=O)=O)cc3)nc21 [Example 295, 4-(8-Ethyl-7-oxo-7,8-dihydro-pyrido[2,3-d]pyrimidin-2-ylamino)-benzenesulfonamide]	950	64	58	130	390
CCn1c(=O)ccc2cnc(Nc3cc(OC)cc(C(F)(F)F)c3)nc21 [Example 300, 8-Ethyl-2-(3-methoxy-5-trifluoromethyl-phenylamino)-8H-pyrido[2,3-d]pyrimidin-7-one]	2800	430	950	3900	620
CCn1c(=O)ccc2cnc(Nc3ccc(F)c(F)c3)nc21 [Example 301, 2-(3,4-Difluoro-phenylamino)-8-ethyl-8H-pyrido[2,3-d]pyrimidin-7-one]	140	120	320	830	600
CCn1c(=O)ccc2cnc(Nc3ccc(C#N)cc3)nc21 [Example 304, 4-(8-Ethyl-7-oxo-7,8-dihydro-pyrido[2,3-d]pyrimidin-2-ylamino)-benzonitrile]	2900	980	1600	1500	2200
CCCn1c(=O)ccc2cnc(Nc3cccc(C(F)(F)F)c3)nc21 [Example 313, 8-Propyl-2-(3-trifluoromethyl-phenylamino)-8H-pyrido[2,3-d]pyrimidin-7-one]	3040	309	334	1480	360
CCCn1c(=O)ccc2cnc(Nc3ccc(Br)c(C(F)(F)F)c3)nc21 [Example 314, 2-(4-Bromo-3-trifluoromethyl-phenylamino)-8-propyl-8H-pyrido[2,3-d]pyrimidin-7-one]	2120	114	520	2370	429
CCCn1c(=O)ccc2cnc(Nc3cccc(I)c3)nc21 [Example 316, 2-(3-Iodo-phenylamino)-8-propyl-8H-pyrido[2,3-d]pyrimidin-7-one]	492	56.6	62.5	296	92.4
CCCn1c(=O)ccc2cnc(Nc3ccc(S(N)(=O)=O)cc3)nc21 [Example 317, 4-(7-Oxo-8-propyl-7,8-dihydro-pyrido[2,3-d]pyrimidin-2-ylamino)-benzenesulfonamide]	978	42.3	31.8	81.7	88.4
CCCn1c(=O)ccc2cnc(Nc3ccc(F)cc3F)nc21 [Example 321, 2-(2,4-Difluoro-phenylamino)-8-propyl-8H-pyrido[2,3-d]pyrimidin-7-one]	3640	648	1110	3160	1240
CCCn1c(=O)ccc2cnc(Nc3ccc(C#N)cc3)nc21 [Example 322, 4-(7-Oxo-8-propyl-7,8-dihydro-pyrido[2,3-d]pyrimidin-2-ylamino)-benzonitrile]	637	228	300	554	597
CCCn1c(=O)ccc2cnc(Nc3ccc(OC)cc3)nc21 [Example 329, 2-(4-Methoxy-phenylamino)-8-propyl-8H-pyrido[2,3-d]pyrimidin-^7-one]	315	160	275	425	320
CCCn1c(=O)ccc2cnc(Nc3cccc([N+](=O)[O-])c3)nc21 [Example 330, 2-(3-Nitro-phenylamino)-8-propyl-8H-pyrido[2,3-d]pyrimidin-7-one]	2100	435	370	1150	940

The next lines start with the values.

IC50 [1] [nM]	IC50 [2] [nM]	IC50 [3] [nM]	IC50 [4] [nM]	IC50 [5] [nM]	SMILES
2000	40	250	1500	430	CCn1c(=O)ccc2cnc(Nc3ccc(F)c(C(F)(F)F)c3)nc21 [Example 293, 8-Ethyl-2-(4-fluoro-3-trifluoromethyl-phenylamino)-8H-pyrido[2,3-d]pyrimidin-7-one]
357	145	157	420	425	CCCn1c(=O)ccc2cnc(Nc3ccccc3)nc21 [Example 309, 2-Phenylamino-8-propyl-8H-pyrido[2,3-d]pyrimidin-7-one]
486	69.4	138	331	215	CCCn1c(=O)ccc2cnc(Nc3ccc(OC)c(Cl)c3)nc21 [Example 310, 2-(3-Chloro-4-methoxy-phenylamino)-8-propyl-8H-pyrido[2,3-d]pyrimidin-7-one]
430	69.1	289	1280	216	CCCn1c(=O)ccc2cnc(Nc3ccc(C)c(C)c3)nc21 [Example 318, 2-(3,4-Dimethyl-phenylamino)-8-propyl-8H-pyrido[2,3-d]pyrimidin-7-one]
1550	106	161	855	159	CCCn1c(=O)ccc2cnc(Nc3cc(Cl)cc(Cl)c3)nc21 [Example 319, 2-(3,5-Dichloro-phenylamino)-8-propyl-8H-pyrido[2,3-d]pyrimidin-7-one]
1650	375	451	2640	669	CCCn1c(=O)ccc2cnc(Nc3ccc([N+](=O)[O-])cc3F)nc21 [Example 320, 2-(2-Fluoro-4-nitro-phenylamino)-8-propyl-8H-pyrido[2,3-d]pyrimidin-7-one]
71.5	53	86.5	250	82	CCCn1c(=O)ccc2cnc(Nc3ccc4[nH]ccc4c3)nc21 [Example 323, 2-(1H-Indol-5-ylamino)-8-propyl-8H-pyrido[2,3-d]pyrimidin-7-one]
214	32	53	145	82.5	CCCn1c(=O)ccc2cnc(Nc3ccc4[nH]ncc4c3)nc21 [Example 324, 2-(1H-Indazol-5-ylamino)-8-propyl-8H-pyrido[2,3-d]pyrimidin-7-one]
165	39.5	38.7	126	1440	CCCn1c(=O)ccc2cnc(Nc3ccc4[nH]nnc4c3)nc21 [Example 325, 2-(1H-Benzotriazol-5-ylamino)-8-propyl-8H-pyrido[2,3-d]pyrimidin-7-one]
189	31	25	67	53	CCCn1c(=O)ccc2cnc(Nc3ccc(O)c(Cl)c3)nc21 [Example 327, 2-(3-Chloro-4-hydroxy-phenylamino)-8-propyl-8H-pyrido[2,3-d]pyrimidin-7-one]
690	92.5	35.3	75	80	CCCn1c(=O)ccc2cnc(Nc3cc(Cl)c(O)c(Cl)c3)nc21 [Example 328, 2-(3,5-Dichloro-4-hydroxy-phenylamino)-8-propyl-8H-pyrido[2,3-d]pyrimidin-7-one]

Reference: US20040224958A1, “Pyridopyrimidinone derivatives for treatment of neurodegenerative disease” (priority 2000, published 2004)
